# The source made the active and inactive calls. The calls are words filed in the database; no cut-off is given here.
# Tests used:
# [1] = Toxicity in C57BL/6 mouse assessed as capsular space obliteration at 15 mg/kg, po administered once daily via gavage for 7 consecutive days and measured post-last dose by H and E staining based histomorphological analysis; format: organism-based; settings: in vivo
# [2] = Volume of distribution at steady state in C57BL/6 mouse at 15 mg/kg, iv by LC-MS/MS analysis; format: ADME, organism-based; settings: in vivo
# [3] = Clearance in mouse liver microsomes at 100 uM by LC-MS/MS analysis relative to hepatic blood flow
# [4] = Clearance in human liver microsomes at 100 uM by LC-MS/MS analysis relative to hepatic blood flow
# [5] = Toxicity in C57BL/6 mouse assessed as lung immune infiltration at 15 mg/kg, po administered once daily via gavage for 7 consecutive days and measured post-last dose by H and E staining based histomorphological analysis; format: organism-based; settings: in vivo
# [6] = Toxicity in C57BL/6 mouse assessed as physiological abnormalities at 15 mg/kg, po administered once daily via gavage for 7 consecutive days and measured post-last dose by H and E staining based histomorphological analysis; format: organism-based; settings: in vivo
# [7] = tested on: Mus musculus; test: (§1) Protection against imiquimod-induced C57BL/6 mouse model of psoriasis assessed as suppression of microabscesses at 15 mg/kg, po administered via gavage treated 1 day prior to imiquimod application and subsequent daily dosing for 7 consecutive days and measured post-last dose by H and E staining based histopathological analysis; format: functional
# [8] = Apparent permeability across basal to apical side in human Caco2 cells at 10 uM measured after 120 mins by LC-MS/MS analysis; settings: Caco-2
# [9] = in vitro; settings: mouse, plasma
# Description: Stability of the compound in mouse plasma assessed as parent compound remaining at 25 uM measured after 2 hrs by LC-MS/MS analysis
# [10] = Toxicity in C57BL/6 mouse assessed as liver fatty infiltration at 15 mg/kg, po administered once daily via gavage for 7 consecutive days and measured post-last dose by H and E staining based histomorphological analysis; format: organism-based; settings: in vivo
# [11] = tested on: Mus musculus; test: as §1, with “reduction in TNFalpha mRNA expression” for “suppression of microabscesses”, “SYBR green dye” for “H and E staining”, “qPCR” for “histopathological”; format: functional, organism-based
# [12] = tested on: Mus musculus; test: as §1, with “reduction in MX2 mRNA expression” for “suppression of microabscesses”, “SYBR green dye” for “H and E staining”, “qPCR” for “histopathological”; format: functional, organism-based
# [13] = target: T1, Toll-like receptor 8 (Homo sapiens) (UniProt Q9NR97); test: Antagonist activity at human TLR8 expressed in HEK-Blue cells assessed as inhibition of CL075-induced NFkappaB activation by measuring reduction in SEAP level up to 50 uM after overnight incubation using qunati-blue reagent by SEAP reporter gene-based spectrophotometric method; format: cell-based
# T1 sequence (whole entry): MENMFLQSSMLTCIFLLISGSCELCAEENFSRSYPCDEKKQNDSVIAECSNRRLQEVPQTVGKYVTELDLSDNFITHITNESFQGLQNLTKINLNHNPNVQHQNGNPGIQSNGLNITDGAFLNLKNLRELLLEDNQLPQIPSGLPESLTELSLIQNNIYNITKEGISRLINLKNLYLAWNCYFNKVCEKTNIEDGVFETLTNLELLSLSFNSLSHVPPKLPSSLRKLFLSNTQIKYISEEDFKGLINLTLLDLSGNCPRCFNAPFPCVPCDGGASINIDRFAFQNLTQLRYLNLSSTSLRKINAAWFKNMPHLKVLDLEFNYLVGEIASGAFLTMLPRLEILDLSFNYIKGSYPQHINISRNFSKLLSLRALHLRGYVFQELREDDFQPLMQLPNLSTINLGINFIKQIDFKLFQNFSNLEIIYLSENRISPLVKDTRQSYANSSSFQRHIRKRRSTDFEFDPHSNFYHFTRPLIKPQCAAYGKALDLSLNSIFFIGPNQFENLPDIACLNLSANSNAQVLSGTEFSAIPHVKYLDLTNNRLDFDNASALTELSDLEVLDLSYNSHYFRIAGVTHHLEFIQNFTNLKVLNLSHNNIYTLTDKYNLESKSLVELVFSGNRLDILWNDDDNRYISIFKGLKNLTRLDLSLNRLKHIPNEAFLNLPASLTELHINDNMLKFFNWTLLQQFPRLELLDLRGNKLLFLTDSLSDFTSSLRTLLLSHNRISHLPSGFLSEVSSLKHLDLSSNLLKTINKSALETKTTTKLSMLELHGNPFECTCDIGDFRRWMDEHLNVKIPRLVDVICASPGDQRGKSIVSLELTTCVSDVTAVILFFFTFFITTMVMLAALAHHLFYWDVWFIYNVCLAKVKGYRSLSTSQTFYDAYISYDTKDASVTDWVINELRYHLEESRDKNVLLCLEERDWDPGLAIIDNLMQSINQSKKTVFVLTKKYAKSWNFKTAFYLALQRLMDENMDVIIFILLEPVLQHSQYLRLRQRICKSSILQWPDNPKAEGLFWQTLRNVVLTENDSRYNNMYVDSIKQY
# [14] = tested on: Mus musculus; test: as §1, with “hyperkeratosis” for “microabscesses”; format: functional
# [15] = Toxicity in C57BL/6 mouse assessed as liver inflammation at 15 mg/kg, po administered once daily via gavage for 7 consecutive days and measured post-last dose by H and E staining based histomorphological analysis; format: organism-based; settings: in vivo
# [16] = Toxicity in C57BL/6 mouse assessed as mesangial proliferation at 15 mg/kg, po administered once daily via gavage for 7 consecutive days and measured post-last dose by H and E staining based histomorphological analysis; format: organism-based; settings: in vivo
# [17] = tested on: Mus musculus; test: Protection against imiquimod-induced C57BL/6 mouse model of psoriasis assessed as decrease in skin scaling at 15 mg/kg, po administered via gavage treated 1 day prior to imiquimod application and subsequent daily dosing for 7 consecutive days and measured post-last dose relative to control; format: functional; design: scale not given: the % may be the effect or the level left
# [18] = Toxicity in C57BL/6 mouse assessed as change in hepatocyte survival at 15 mg/kg, po administered once daily via gavage for 7 consecutive days and measured post-last dose by H and E staining based histomorphological analysis; format: organism-based; settings: in vivo
# [19] = tested on: Mus musculus; test: as §1, with “pustule formation” for “microabscesses”; format: functional
# [20] = Half life in human liver microsomes at 100 uM by LC-MS/MS analysis
# [21] = tested on: Mus musculus; test: as §1, with “spongiosis” for “microabscesses”; format: functional
# [22] = tested on: Mus musculus; test: as §1, with “reduction in IFIT1 mRNA expression” for “suppression of microabscesses”, “SYBR green dye” for “H and E staining”, “qPCR” for “histopathological”; format: functional, organism-based
# [23] = tested on: Mus musculus; test: as §1, with “acanthosis” for “microabscesses”; format: functional
# [24] = Toxicity in C57BL/6 mouse assessed as change in liver parenchymal architecture at 15 mg/kg, po administered once daily via gavage for 7 consecutive days and measured post-last dose by H and E staining based histomorphological analysis; format: organism-based; settings: in vivo
smiles,measurement,setting,value
CCN1CCN(CCCn2cnc3c(N4CCN(CC)CC4)ncnc32)CC1,Activity,[1],Non-Toxic
same,Vdss,[2],4.2 L/kg
same,hepatic extraction ratio at 100 µM,[3],0.144
same,hepatic extraction ratio at 100 µM,[4],0.265
same,Activity,[5],Non-Toxic
same,Activity,[6],Non-Toxic
same,Activity,[7],100%
same,"Papp B→A at 2 h, 10 µM",[8],9.28 ×10⁻⁶ cm/s
same,"remaining at 2 h, 25 µM",[9],99.2%
same,Activity,[10],Non-Toxic
same,Activity,[11],Active
same,Activity,[12],Active
same,inhibition,[13],inactive
same,Activity,[14],100%
same,Activity,[15],Non-Toxic
same,Activity,[16],Non-Toxic
same,Activity,[17],100%
same,Activity,[18],Non-Toxic
same,Activity,[19],100%
same,half-life at 100 µM,[20],1.5 h
same,Activity,[21],100%
same,Activity,[22],Active
same,Activity,[23],100%
same,Activity,[24],Non-Toxic
